In US11726088B2, “Sirtuin 4 (SIRT4) lipoamidase activity and uses thereof” (THE TRUSTEES OF PRINCETON UNIVERSITY, priority 2014, dated 2023):
Blank lines part the entries; values can stand above or below the molecule they belong to. Primed or numbered codes have the meaning given here. Ends that are not written are not given here. Peptide text beside a SMILES is read from it. * marks the point of attachment. ξ: configuration not given here. Biotin = O=C1N[C@H]2[C@H](CS[C@H]2CCCCC(=O)*)N1; lipoyl″ = O=C(CCCC[C@@H]1CCSS1)*; Lipoyl(6ξ) = O=C(CCCCC1CCSS1)*

How the values were obtained:
Format in all cases: biochemical
SIRT4 [1] = target: T1, SIRT4 (Homo sapiens, UniProt Q9Y6E7); assay: HPLC-based SIRT4 kinetics assays (steady-state, acyl-modified peptide substrates); conditions: SIRT4 enzyme concentration = 5 μM; NAD 1 mM; 25° C.
T1 construct: 6xHis (followed by human rhinovirus 3C protease site) (N); made in house; host or cells: E. coli BL21(DE3), co-expressed with GroEL and GroES
T1 sequence (Q9Y6E7 33-314): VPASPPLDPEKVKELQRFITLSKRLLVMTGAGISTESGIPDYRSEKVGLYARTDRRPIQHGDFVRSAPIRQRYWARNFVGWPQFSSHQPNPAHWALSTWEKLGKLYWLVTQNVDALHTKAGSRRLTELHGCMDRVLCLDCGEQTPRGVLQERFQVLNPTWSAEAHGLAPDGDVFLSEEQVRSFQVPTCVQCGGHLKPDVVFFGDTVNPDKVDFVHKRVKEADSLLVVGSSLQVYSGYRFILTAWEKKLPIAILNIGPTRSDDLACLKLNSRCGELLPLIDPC
From the text: Recombinant SIRT4 protein expression and purification. N-terminally truncated human Sirt4 (33-314 of SEQ ID NO: 2) was cloned into a derivative of pET-15b containing a human rhinovirus 3C Protease cleavage site in place of its thrombin cleavage site. 6×His-Sirt4 was co-expressed with GroEL and GroES in BL21(DE3) E. coli in order to promote proper protein folding. Protein was purified using immobilized-metal affinity chromatography (IMAC) followed by anion-exchange chromatography to remove associated folding chaperones. For some experiments the His-tag was removed using 3C protease. Protein was concentrated, snap frozen in N2(l), and stored at −80° C. HPLC-based SIRT4 kinetics assays. SIRT4 kinetic assays were essentially performed as described by others^3,4. Briefly, enzyme reactions (20 μL) were performed in 50 mM Tris, pH 8.0, containing 5 μM recombinant SIRT4 and varying concentrations (0 to 2500 μM) of H3K9- or DLAT-modified peptides with either acetyl-lysine, biotinyl-lysine, or lipoyl-lysine. Reactions were initiated by addition of NAD (1 mM) and incubated at 25° C. for between 30-120 min, depending on substrate-specific reaction rates and to maintain steady-state conditions. Reactions were quenched with formic acid to a final concentration of 0.5% (v/v) and analyzed by HPLC-UV detection (Ultimate 3000 RSLC/VWD-3400). Substrate and product were separated by reverse-phase chromatography (Acclaim PepMap RSLC, 75 μm×15 cm) at 0.75 μL/min. Product concentration was measured by peak integration of A280 signals. Initial reaction velocities were determined in at least duplicate and fit to a modified Briggs-Haldane equation, which substituted kcat×[SIRT4] for Vmax and allowed determination of kinetic parameters, kcat, Km and kcat/Km and their associated error (±SEM), using GraphPad Prism 5. SIRT4's catalytic efficiency towards the various acyl-modified peptide substrates was assessed (Table 1 below).

SIRT4 [2] = target: T1, SIRT4; assay: LC-MS-based in vitro peptide deacylation assay; conditions: 5 μM SIRT4, 10 uM peptide, with NAD, 1 hr at 37° C.
From the text: Recombinant SIRT4 protein expression and purification. N-terminally truncated human Sirt4 (33-314 of SEQ ID NO: 2) was cloned into a derivative of pET-15b containing a human rhinovirus 3C Protease cleavage site in place of its thrombin cleavage site. 6×His-Sirt4 was co-expressed with GroEL and GroES in BL21(DE3) E. coli in order to promote proper protein folding. Protein was purified using immobilized-metal affinity chromatography (IMAC) followed by anion-exchange chromatography to remove associated folding chaperones. For some experiments the His-tag was removed using 3C protease. Protein was concentrated, snap frozen in N2(l), and stored at −80° C.
LC-MS-based in vitro peptide deacylation assay. The ability of SIRT4 to hydrolyze various acyl-lysine modifications was measured using LC-MS. In 20 μL reaction volume, 10 uM peptide (lipoyl-, biotinyl-, or acetyl-lysine) was incubated with increasing concentrations of SIRT4 (0.5 μM, 2.5 μM, and 5 μM), with or without NAD, in 50 mM TrisHCl, pH 8, 137 mM NaCl, 2.7 mM KCl and 1 mM MgCl2, for 1 hr at 37° C. Reactions were quenched with 25 μL of 2% TFA and an internal control peptide was spiked in to monitor for run-to-run variability. Reaction products were desalted, eluted, concentrated and analyzed by nano-LC-MS/MS, as above, but altered LC gradients. A 30 min linear gradient from 4-40% B was used for all peptides, except for lipoyl-lysine biological peptides, which used a 12-70% B linear gradient. Data were imported into Skyline software (version 2.1) to obtain precursor extracted ion chromatographams (XICs) using the following settings: Isotope Count, 3; precursor mass analyzer, Orbitrap; Resolving power, 60,000 @ 400 Th. The retention times of substrate (modified) and product (unmodified) peptides were confirmed by fragmentation spectra and peak integration boundaries were manually inspected. Three biological replicates were analyzed for each reaction.
The lipoamide cofactor bound to E2 (transferase enzymes) is required for dehydrogenase complex activity (FIG. 1b). Given that other mitochondrial SIRTs can hydrolyze various […] group lysine modifications^3,4 and that all PDHC components were present in our SIRT4 isolation, we speculated that E2 dehydrogenase components may be biological substrates of SIRT4, and that SIRT4 may directly hydrolyze the lipoamid modification. To test this we screened the in vitro activity of recombinant SIRT4 against differentially-modified synthetic peptides (FIG. 10). Firstly, SIRT4 activity towards acyl-modified H3K9 peptides (SEQ ID NOs: 3-5) was measured using a liquid-chromatography (LC)-MS-based deacylation assay. SIRT4 was incubated with H3K9 peptides modified with acetyl-lysine (SEQ ID NO: 5), biotinyl-lysine (SEQ ID NO: 4) or lipoyl-lysine (SEQ ID NO: 3), in the presence or absence of NAD. Following reaction, the remaining unreacted substrates and newly generated unmodified peptides were identified and quantified by LC-MS (FIG. 2A, 2G-2I and FIG. 5). […] To compare the relative preference of SIRT4 for these different substrates, we used extracted ion chromatograms to quantify unreacted substrate (S) and product (P) amounts from all reactions, and represented the percentage of unmodified peptide generated (FIG. 2H). […] The relative amount of unmodified product generated using 5 μM SIRT4 was 11% (lipoyl—SEQ ID NO: 3), 3% (biotinyl—SEQ ID NO: 4) and 0.3% (acetyl—[…]) (FIG. 2B and FIG. 2H, H3K9 substrates). […]

purified porcine PDH = assay: Immuno-capture activity assay of purified porcine PDH in vitro; conditions: PDP1 0.1 μg/μL; recombinant SIRT4 50 μM + NAD 5 mM after PDP1
Protocol: Purified porcine heart PDH pre-incubated at a final concentration of 1 μg/μl (10 and 25 μL reactions for PDH assay and Western blot, respectively) in 1×PDH assay buffer for 10 min at 30° C. containing 2 mM CaCl2), with or without 0.1 μg/μL of pyruvate dehydrogenase phosphatase catalytic subunit 1 (PDP1, Abcam, cat. #ab110357). To reactions that were treated with PDP1, either NAD alone (5 mM), recombinant SIRT4 (50 μM)+NAD (5 mM), or recombinant SIRT4 H161Y (50 μM)+NAD (5 mM) were added and incubated for an additional 1 hr at RT. 10 μL reactions were diluted with 400 μL of 1×PDH assay buffer and 2×200 μL were used to determine PDH activity. For Western blot analysis (25 μl reactions), 5 μg of purified porcine PDH was mixed in 1× reducing LDS sample buffer, heated at 70° C. for 10 min, resolved by SDS-PAGE, and then proteins were transferred to nitrocellulose membranes for detection of total E1α, pS232, pS293, and pS300 (see western immunoblotting above).
To characterize the impact of the observed in vitro activity, we next assessed whether SIRT4 could regulate the activity of PDH. We first used an immuno-capture assay to test the activity of purified porcine PDH in vitro (FIG. 14A). […] Therefore, we speculated that the reduction in activity may result from SIRT4 directly hydrolyzing the DLAT lipoamide.

Molecule: CC[C@H](C)[C@H](NC(=O)[C@@H](NC(=O)[C@H](C)NC(=O)[C@H](CCCCNC(C)=O)NC(=O)[C@H](CC(=O)O)NC(=O)[C@@H](NC(=O)[C@H](CCC(=O)O)NC(=O)[C@@H](NC(=O)[C@@H](N)CCC(=O)O)[C@@H](C)CC)[C@@H](C)O)[C@@H](C)O)C(=O)NCC(=O)N[C@@H](Cc1c[nH]c2ccccc12)C(=O)O [DLAT K259 Acetyl] (H-EIETDK(Ac)ATIGW-OH)
Km (SIRT4 [1]): > 2500 µM

Molecule: CC(=O)NCCCC[C@H](NC(=O)[C@H](CCCNC(=N)N)NC(=O)[C@H](C)NC(=O)[C@@H](NC(=O)[C@H](CCC(N)=O)NC(=O)[C@@H](N)CCCCN)[C@@H](C)O)C(=O)N[C@@H](CO)C(=O)N[C@H](C(=O)NCC(=O)NCC(=O)N[C@@H](Cc1c[nH]c2ccccc12)C(=O)N[C@@H](Cc1c[nH]c2ccccc12)C(=O)O)[C@@H](C)O [H3 K9 Acetyl] (H-KQTARK(Ac)STGGWW-OH)
Km (SIRT4 [1]): > 2500 µM
relative amount of unmodified product generated (SIRT4 [2]): 0.3%

B1: SIRT4: N-terminally truncated recombinant human Sirt4 (33-314 of SEQ ID NO: 2) (protein, listed as Homo sapiens)
chain: T1 sequence (Q9Y6E7 33-314)
activity of purified porcine PDH (purified porcine PDH): able to attenuate PDH activity

B2: PDP1: pyruvate dehydrogenase phosphatase catalytic subunit 1 (protein, UniProt Q9P0J1 72-537, looked up)
[Pyruvate dehydrogenase …: ASTPQKFYLTPPQVNSILKANEYSFKVPEFDGKNVSSILGFDSNQLPANAPIEDRRSAATCLQTRGMLLGVFDGHAGCACSQAVSERLFYYIAVSLLPHETLLEIENAVESGRALLPILQWHKHPNDYFSKEASKLYFNSLRTYWQELIDLNTGESTDIDVKEALINAFKRLDNDISLEAQVGDPNSFLNYLVLRVAFSGATACVAHVDGVDLHVANTGDSRAMLGVQEEDGSWSAVTLSNDHNAQNERELERLKLEHPKSEAKSVVKQDRLLGLLMPFRAFGDVKFKWSIDLQKRVIESGPDQLNDNEYTKFIPPNYHTPPYLTAEPEVTYHRLRPQDKFLVLATDGLWETMHRQDVVRIVGEYLTGMHHQQPIAVGGYKVTLGQMHGLLTERRTKMSSVFEDQNAATHLIRHAVGNNEFGTVDHERLSKMLSLPEELARMYRDDITIIVVQFNSHVVGAYQNQE
activity of purified porcine PDH (purified porcine PDH): elevated PDH activity

Results, then the molecule that gave them:

Km (SIRT4 [1]): 719 ± 79 µM
relative amount of unmodified product generated (SIRT4 [2]): 3%
Molecule: C[C@H](NC(=O)[C@@H](NC(=O)[C@H](CCC(N)=O)NC(=O)[C@@H](N)CCCCN)[C@@H](C)O)C(=O)N[C@@H](CCCNC(=N)N)C(=O)N[C@@H](CCCCNC(=O)CCCC[C@@H]1SC[C@@H]2NC(=O)N[C@@H]21)C(=O)N[C@@H](CO)C(=O)N[C@H](C(=O)NCC(=O)NCC(=O)N[C@@H](Cc1c[nH]c2ccccc12)C(=O)N[C@@H](Cc1c[nH]c2ccccc12)C(=O)O)[C@@H](C)O [H3 K9 Biotinyl] (H-KQTARK(Biotin)STGGWW-OH)

Km (SIRT4 [1]): 814 ± 163 µM
relative amount of unmodified product generated (SIRT4 [2]): 11%
Molecule: C[C@H](NC(=O)[C@@H](NC(=O)[C@H](CCC(N)=O)NC(=O)[C@@H](N)CCCCN)[C@@H](C)O)C(=O)N[C@@H](CCCNC(=N)N)C(=O)N[C@@H](CCCCNC(=O)CCCCC1CCSS1)C(=O)N[C@@H](CO)C(=O)N[C@H](C(=O)NCC(=O)NCC(=O)N[C@@H](Cc1c[nH]c2ccccc12)C(=O)N[C@@H](Cc1c[nH]c2ccccc12)C(=O)O)[C@@H](C)O (some centres unmarked) [H3 K9 Lipoyl] (H-KQTARK(Lipoyl(6ξ))STGGWW-OH)

Km (SIRT4 [1]): > 2500 µM
Molecule: MCD K471 Acetyl: synthetic MCD K471 peptide SYLGSKNIKASEW with acetyl-lysine (SEQ ID NO: 29) (also: acetyl-lysine at K471, K6 or K9 not given here)

relative amount of unmodified product generated (SIRT4 [2]): 42%
Molecule: PDHX: lipoyl-modified PDHX peptide substrate (SEQ ID NO: 12); unmodified product is SEQ ID NO: 13 (EIETDK(lipoyl″)AVVTWW)
